Key:
Experiment in all cases: viability inhibition at highest dose (% inhibition); higher = more growth inhibition
[1] = system: ZR-75-1; conditions: 72 h
Procedure: (§1)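 Percent inhibition of viability (CellTiter-Glo, 72 h) at the highest tested concentration (D5), normalised to DMSO (0%) and 100 µM benzethonium chloride (100%). Resistant lines and the 'in 1µM tamoxifen' arms were tested in 1 µM 4-OH-tamoxifen.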

[2] = system: ZR-75-1 Tam1; conditions: 4-OH-tamoxifen in medium 1 µM; 72 h
Procedure: as §1

[3] = system: ZR-75-1 Tam2; conditions: 4-OH-tamoxifen in medium 1 µM; 72 h
Procedure: as §1

[4] = system: BT-474; conditions: 72 h
Procedure: as §1

[5] = system: MCF-7 Tam1; conditions: 4-OH-tamoxifen in medium 1 µM; 72 h
Procedure: as §1

[6] = system: T-47D Tam2; conditions: 4-OH-tamoxifen in medium 1 µM; 72 h
Procedure: as §1

[7] = system: T-47D Tam1; conditions: 4-OH-tamoxifen in medium 1 µM; 72 h
Procedure: as §1

[8] = system: T-47D; conditions: 72 h
Procedure: as §1

[9] = system: BT-474 Tam1; conditions: 4-OH-tamoxifen in medium 1 µM; 72 h
Procedure: as §1

[10] = system: MCF-7; conditions: 72 h
Procedure: as §1

[11] = system: BT-474 Tam2; conditions: 4-OH-tamoxifen in medium 1 µM; 72 h
Procedure: as §1

Compound | viability inhibition at highest dose ([1]; 4-OH-tamoxifen in medium 0 µM) | viability inhibition at highest dose ([1]; 4-OH-tamoxifen in medium 1 µM) | viability inhibition at highest dose [2] | viability inhibition at highest dose [3] | viability inhibition at highest dose ([4]; 4-OH-tamoxifen in medium 0 µM) | viability inhibition at highest dose ([4]; 4-OH-tamoxifen in medium 1 µM) | viability inhibition at highest dose [5] | viability inhibition at highest dose [6] | viability inhibition at highest dose [7] | viability inhibition at highest dose ([8]; 4-OH-tamoxifen in medium 0 µM) | viability inhibition at highest dose ([8]; 4-OH-tamoxifen in medium 1 µM) | viability inhibition at highest dose [9] | viability inhibition at highest dose ([10]; 4-OH-tamoxifen in medium 0 µM) | viability inhibition at highest dose ([10]; 4-OH-tamoxifen in medium 1 µM) | viability inhibition at highest dose [11]
CCC1(c2ccc(N)cc2)CCC(=O)NC1=O (stereo not given) [Aminoglutethimide] (drug 10000 nM) | 6.41 | 10.3 | 9.59 | 8.94 | -3.67 | 20 | 6.51 | 4.12 | 4.05 | -3.76 | 5.9 | 12.8 | -3.88 | 8.64 | -1.52
CC/C(=C(\c1ccc(O)cc1)c1ccc(OCCN(C)C)cc1)c1ccccc1 [4-hydroxytamoxifen] (drug 10000 nM) | 8.03 | 33.1 | 17.8 | 21.5 | 23.3 | 97.2 | 46.3 | 79.7 | 38.4 | 20.4 | 59 | 97.8 | 52.3 | 83.1 | 96
CNNCc1ccc(C(=O)NC(C)C)cc1 [Procarbazine] (drug 10000 nM) | -8.18 | 1.35 | 5.75 | -4.74 | -6.73 | -0.151 | -2.96 | 18.8 | 0.22 | -8.64 | 3.29 | 3.72 | -15.7 | -26.1 | -9.69
CC1(C)NC(=O)N(c2ccc([N+](=O)[O-])c(C(F)(F)F)c2)C1=O [Nilutamide] (drug 10000 nM) | -16.5 | -4.81 | 2.7 | 4.62 | -2.3 | -13.3 | -1.08 | 6 | 0.496 | -3.55 | -11.8 | -0.747 | -15.4 | 15.9 | 10.7
Cc1ccc(F)c(NC(=O)Nc2ccc(-c3cccc4[nH]nc(N)c34)cc2)c1 [Linifanib (ABT-869)] (drug 1000 nM) | -3.03 | -10.3 | -5.49 | -0.131 | -5.83 | -19 | -5.44 | -13.7 | 5.32 | -7.82 | -2.26 | -15 | -7.63 | 4.89 | -11.2
CC[C@@H]1C(=O)N(C)c2cnc(Nc3ccc(C(=O)NC4CCN(C)CC4)cc3OC)nc2N1C1CCCC1 [BI 2536] (drug 1000 nM) | 12.7 | 26.7 | 26.8 | 21.6 | 26 | 48.3 | 7.18 | 34 | 30.3 | 29.2 | 19.9 | 27.9 | 39 | 29.9 | 11.8
CC(C)Cn1cnc2c(N)nc3ccccc3c21 [Imiquimod] (drug 10000 nM) | 0.432 | 2.78 | -4.93 | -8.03 | 9.75 | 18.4 | 5.29 | 15.3 | 8.8 | 16.1 | 10.4 | 8.22 | -14.1 | 15.9 | 11.8
Cn1cnc2c(F)c(Nc3ccc(Br)cc3F)c(C(=O)NOCCO)cc21 [MEK-162 (ARRY-162)] (drug 1000 nM) | -6.09 | -7.06 | -1.39 | 7.88 | -13.3 | 6.81 | 10.4 | 14.1 | 17.2 | -6.66 | -10.7 | 2.68 | 12.2 | 20.8 | -1.22
COc1cc2c(Oc3ccc(NC(=O)C4(C(=O)Nc5ccc(F)cc5)CC4)cc3F)ccnc2cc1OCCCN1CCOCC1 [Foretinib (Foretinib)] (drug 1000 nM) | 0.383 | 13.7 | 9.43 | 19.5 | 1.4 | 44.6 | 26.2 | 28.5 | 19 | 20.6 | 17.8 | 31.4 | 16.9 | 20.7 | 10.3
CO[C@@]12[C@H](COC(N)=O)C3=C(C(=O)C(C)=C(N)C3=O)N1C[C@@H]1N[C@@H]12 [Mitomycin C] (drug 10000 nM) | 25.5 | 23.7 | 28.3 | 23.4 | -12.3 | -7 | -6.06 | 10.8 | 33.5 | 31.4 | -4.69 | 0.772 | 16.2 | 11.4 | 0.827
O=NN(CCCl)C(=O)NCCCl [Carmustine] (drug 10000 nM) | -12.9 | -8.4 | -2.37 | 0.516 | -6.34 | -3.07 | -12.7 | 2.64 | 0.948 | -12.6 | -5.73 | -0.31 | -2.85 | 5.33 | 4.36
COc1nc(N)nc2c1ncn2[C@@H]1O[C@H](CO)[C@@H](O)[C@@H]1O [Nelarabine] (drug 10000 nM) | 11.1 | 4.17 | 1.44 | 2.19 | -2.92 | 16.3 | 4.67 | -4.97 | -2.1 | 1.79 | 6.8 | 0.136 | 13.2 | -6.84 | -6.72
CCc1cncnc1N1CCN(Cc2nc3ccc(C(F)(F)F)cc3[nH]2)CC1 (drug 10000 nM) | 18.5 | 28.3 | 17.9 | 25.5 | 36 | 53.7 | 20.7 | 31 | 33.4 | 33 | 15.3 | 68.5 | 37.2 | 33.2 | 41.4
N[C@@H](CSC(c1ccccc1)(c1ccccc1)c1ccccc1)C(=O)O [S-trityl-L-cysteine] (drug 40000 nM) | 9.84 | 13 | 4.16 | 3.17 | -1.05 | 23.9 | -5.14 | 4.25 | 4.09 | 2.31 | 4.34 | 23.3 | 0.988 | 18.1 | -5.53
CN1CCC(COc2cnc(-c3cccc(Cn4nc(-c5cccc(C#N)c5)ccc4=O)c3)nc2)CC1 (drug 1000 nM) | -2.72 | 2.17 | 0.277 | -3.94 | 2.72 | -6.04 | 7.93 | -1.11 | 57.5 | -10.4 | -5.78 | 4.43 | -4.34 | 13.2 | 8.15
CO[C@@H](C(=O)N1Cc2[nH]nc(NC(=O)c3ccc(N4CCN(C)CC4)cc3)c2C1)c1ccccc1 (drug 10000 nM) | -27.9 | -21.1 | -23.1 | -19.5 | -18.6 | -36.3 | 8.32 | 34.4 | 38.4 | 29.4 | 17.6 | -17.9 | 20.9 | 7.45 | -18.2
NC1(c2ccc(-c3nc4ccn5c(=O)[nH]nc5c4cc3-c3ccccc3)cc2)CCC1 [MK-2206] (drug 1000 nM) | 57.1 | 51.6 | 60.8 | 63.1 | 27.6 | 50.8 | 29.1 | 49.9 | 44.5 | 52.4 | 36.6 | 47 | 35.1 | 44.8 | 21.9
O=C(CCCCCCC(=O)Nc1ccc([C@H]2O[C@@H](CSc3nc(-c4ccccc4)c(-c4ccccc4)o3)C[C@@H](c3ccc(CO)cc3)O2)cc1)NO [Tubacin] (drug 10000 nM) | 18.1 | 24.4 | 32.9 | 19.2 | 28.3 | 84.7 | 22.1 | 39.4 | 45.1 | 57.8 | 90.2 | 21.5 | 55.1 | 67.2 | 33.8
O=C(O)C(=O)O.[NH-][C@@H]1CCCC[C@H]1[NH-].[Pt+2] [Oxaliplatin] (drug 10000 nM) | 2.13 | -0.0598 | 4.08 | 5.48 | -9.5 | -21.1 | -5.32 | 5.52 | 1.11 | -7.69 | -13.3 | -7.39 | 4.06 | 3.34 | 1.63
Nc1ncn([C@@H]2O[C@H](CO)[C@@H](O)[C@H]2O)c(=O)n1 [Azacitidine] (drug 10000 nM) | 11.2 | 0.709 | 11.9 | 7.49 | 11.1 | 12.4 | 1.85 | 21 | 23.6 | 16.3 | -5.14 | 1.3 | 31.9 | -0.966 | 17.2
COc1cc2nccc(Oc3ccc(NC(=O)C4(C(=O)Nc5ccc(F)cc5)CC4)cc3)c2cc1OC [Cabozantinib (XL184)] (drug 1000 nM) | -14.6 | -2.98 | 6.25 | 2.11 | -10.4 | 16 | 1.76 | 10.4 | 2.69 | -4.29 | -1.77 | 22.4 | 5.85 | 11.3 | 7.72
C[C@]12CC[C@@H]3c4ccc(O)cc4C[C@@H](CCCCCCCCC[S+]([O-])CCCC(F)(F)C(F)(F)F)[C@H]3[C@@H]1CC[C@@H]2O (stereo not given in full) [Fulvestrant] (drug 1000 nM) | -18.5 | -4.88 | -1.86 | -6.33 | -5.27 | -0.276 | -0.218 | 8.69 | 12.9 | 1.98 | -1.62 | -6.25 | 31.4 | 17.5 | 4.97
COc1cc([C@@H]2c3cc4c(cc3[C@@H](O[C@@H]3O[C@@H]5CO[C@@H](C)O[C@H]5[C@H](O)[C@H]3O)[C@H]3COC(=O)[C@H]23)OCO4)cc(OC)c1O [Etoposide] (drug 10000 nM) | 32.5 | 19.4 | 23 | 15.5 | -4.44 | 27.7 | -2.1 | 7.25 | 42.1 | 46.7 | 15.7 | 14 | 8.22 | 12.7 | -7.49
NC(=O)c1ccc(I)c([N+](=O)[O-])c1 (drug 10000 nM) | -1.66 | 4.93 | 7.66 | -0.492 | 3.04 | -11 | 2 | 14.7 | 7.73 | -4.63 | -1.38 | -6.12 | 2.33 | -5.76 | -6.48
CN(N=O)C(=O)N[C@@H](C=O)[C@@H](O)[C@H](O)[C@H](O)CO [Streptozocin] (drug 10000 nM) | -9.82 | 2.7 | 1.17 | -12.2 | -7.13 | 3.07 | -3.41 | 9.65 | -3.33 | -10.8 | -3.95 | -7.72 | -9.93 | -7.59 | -7.21
COc1cc2c(Oc3ccc4[nH]c(C)cc4c3F)ncnc2cc1OCCCN1CCCC1 [Cediranib (AZD2171, Recentin)] (drug 1000 nM) | 9.26 | 4.94 | 4.06 | 5.44 | 1.02 | 39.4 | 1.79 | 2.12 | 2.94 | 2.79 | 7.26 | 15.2 | 11.5 | 2.46 | 6.19
NCCCNCCSP(=O)(O)O [Amifostine] (drug 10000 nM) | -8.06 | -7.66 | 1.78 | -10.8 | -2.99 | 1.56 | -11.7 | 7 | -2.35 | -8.52 | -1.52 | -0.954 | -14.2 | -5.03 | -1.33
